Where two headings read alike, the source gives them in different places.
Key:
Assay in all cases: biochemical
Parameters in all cases: KINOMEscan scanMAX competition binding, DNA-tagged kinases, qPCR read-out, percent control at 300 nM
[1] = biological target: T1, TXK (Homo sapiens, UniProt P42681)
T1 sequence (P42681 1-527): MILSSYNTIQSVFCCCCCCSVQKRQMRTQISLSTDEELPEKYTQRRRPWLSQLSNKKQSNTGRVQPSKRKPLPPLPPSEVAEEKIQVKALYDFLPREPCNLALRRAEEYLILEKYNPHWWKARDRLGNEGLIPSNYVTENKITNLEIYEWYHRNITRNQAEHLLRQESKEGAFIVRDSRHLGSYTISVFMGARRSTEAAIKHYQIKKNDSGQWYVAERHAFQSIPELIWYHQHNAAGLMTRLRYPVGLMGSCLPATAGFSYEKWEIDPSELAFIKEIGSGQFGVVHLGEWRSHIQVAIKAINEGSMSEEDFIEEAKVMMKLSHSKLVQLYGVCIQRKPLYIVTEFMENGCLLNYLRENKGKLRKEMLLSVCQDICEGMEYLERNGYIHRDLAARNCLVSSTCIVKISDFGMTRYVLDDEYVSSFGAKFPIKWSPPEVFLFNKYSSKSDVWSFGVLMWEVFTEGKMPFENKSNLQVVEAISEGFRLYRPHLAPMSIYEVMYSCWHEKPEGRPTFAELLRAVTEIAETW

[2] = biological target: PIK3CA(E545K) (Homo sapiens, UniProt P42336, E545K)
Chain of PIK3CA(E545K) (P42336 whole entry E545K): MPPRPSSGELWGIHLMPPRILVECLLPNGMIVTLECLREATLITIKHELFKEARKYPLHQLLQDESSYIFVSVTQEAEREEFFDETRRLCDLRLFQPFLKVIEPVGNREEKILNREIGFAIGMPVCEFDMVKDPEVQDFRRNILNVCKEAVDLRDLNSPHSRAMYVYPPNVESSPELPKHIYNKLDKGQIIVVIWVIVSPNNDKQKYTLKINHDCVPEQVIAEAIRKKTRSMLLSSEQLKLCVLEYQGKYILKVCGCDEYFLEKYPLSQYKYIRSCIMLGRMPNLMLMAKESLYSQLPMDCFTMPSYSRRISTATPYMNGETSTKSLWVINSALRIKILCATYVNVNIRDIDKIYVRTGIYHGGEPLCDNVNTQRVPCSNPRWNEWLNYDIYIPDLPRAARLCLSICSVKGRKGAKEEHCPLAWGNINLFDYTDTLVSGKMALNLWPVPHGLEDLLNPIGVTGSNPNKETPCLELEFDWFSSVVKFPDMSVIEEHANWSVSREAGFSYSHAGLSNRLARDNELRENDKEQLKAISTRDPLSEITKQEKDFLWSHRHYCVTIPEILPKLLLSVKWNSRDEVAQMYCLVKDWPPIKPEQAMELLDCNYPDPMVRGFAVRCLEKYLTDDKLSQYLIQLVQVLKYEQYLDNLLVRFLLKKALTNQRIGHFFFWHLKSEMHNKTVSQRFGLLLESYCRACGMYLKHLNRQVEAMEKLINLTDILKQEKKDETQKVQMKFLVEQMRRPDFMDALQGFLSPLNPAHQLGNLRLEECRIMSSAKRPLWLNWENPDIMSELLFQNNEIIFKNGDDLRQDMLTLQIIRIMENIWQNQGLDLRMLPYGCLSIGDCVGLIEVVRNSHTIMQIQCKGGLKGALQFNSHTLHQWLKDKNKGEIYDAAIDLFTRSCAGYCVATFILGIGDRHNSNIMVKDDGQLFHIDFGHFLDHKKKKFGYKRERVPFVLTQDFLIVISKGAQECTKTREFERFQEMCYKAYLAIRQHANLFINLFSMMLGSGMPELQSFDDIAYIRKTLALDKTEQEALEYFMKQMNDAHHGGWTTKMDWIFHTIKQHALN

[3] = biological target: T2, ABL1(H396P)-phosphorylated (Homo sapiens, UniProt P00519, H396P)
T2 construct: phosphorylated

[4] = biological target: T3, PRKX (Homo sapiens, UniProt P51817)
T3 sequence (P51817 1-358): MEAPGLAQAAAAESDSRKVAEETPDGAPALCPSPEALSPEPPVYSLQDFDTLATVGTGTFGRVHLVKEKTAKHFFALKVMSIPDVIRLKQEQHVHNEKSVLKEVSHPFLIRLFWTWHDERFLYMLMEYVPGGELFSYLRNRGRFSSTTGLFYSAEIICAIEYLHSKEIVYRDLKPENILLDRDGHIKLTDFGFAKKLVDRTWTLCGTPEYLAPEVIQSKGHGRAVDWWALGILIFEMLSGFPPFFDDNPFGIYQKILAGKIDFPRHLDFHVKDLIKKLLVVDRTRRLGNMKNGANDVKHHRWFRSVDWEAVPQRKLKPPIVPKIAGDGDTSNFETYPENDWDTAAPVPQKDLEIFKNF

[5] = biological target: BRAF (Homo sapiens, UniProt P15056)
Chain of BRAF (P15056 whole entry): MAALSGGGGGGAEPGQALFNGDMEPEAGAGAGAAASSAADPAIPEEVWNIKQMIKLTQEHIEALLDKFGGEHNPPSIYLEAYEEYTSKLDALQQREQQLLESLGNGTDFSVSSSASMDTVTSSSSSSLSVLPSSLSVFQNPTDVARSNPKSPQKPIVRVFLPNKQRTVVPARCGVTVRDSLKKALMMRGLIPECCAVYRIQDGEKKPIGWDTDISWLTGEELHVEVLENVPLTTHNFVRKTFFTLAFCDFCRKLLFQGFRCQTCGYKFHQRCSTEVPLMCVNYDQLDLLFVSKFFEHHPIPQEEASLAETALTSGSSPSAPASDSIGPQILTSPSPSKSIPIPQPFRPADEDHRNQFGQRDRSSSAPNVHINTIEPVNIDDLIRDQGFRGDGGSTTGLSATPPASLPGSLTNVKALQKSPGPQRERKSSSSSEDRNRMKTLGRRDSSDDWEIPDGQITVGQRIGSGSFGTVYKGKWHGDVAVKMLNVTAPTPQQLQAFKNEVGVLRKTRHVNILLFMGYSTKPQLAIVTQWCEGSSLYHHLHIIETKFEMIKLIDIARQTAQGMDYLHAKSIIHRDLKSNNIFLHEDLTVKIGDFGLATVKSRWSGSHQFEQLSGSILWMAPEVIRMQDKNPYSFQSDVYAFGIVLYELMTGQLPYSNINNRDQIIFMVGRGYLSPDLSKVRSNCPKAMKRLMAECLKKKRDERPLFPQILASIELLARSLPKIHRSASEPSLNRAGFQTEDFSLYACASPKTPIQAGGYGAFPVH

[6] = biological target: CSF1R (Homo sapiens, UniProt P07333)
Chain of CSF1R (P07333 whole entry): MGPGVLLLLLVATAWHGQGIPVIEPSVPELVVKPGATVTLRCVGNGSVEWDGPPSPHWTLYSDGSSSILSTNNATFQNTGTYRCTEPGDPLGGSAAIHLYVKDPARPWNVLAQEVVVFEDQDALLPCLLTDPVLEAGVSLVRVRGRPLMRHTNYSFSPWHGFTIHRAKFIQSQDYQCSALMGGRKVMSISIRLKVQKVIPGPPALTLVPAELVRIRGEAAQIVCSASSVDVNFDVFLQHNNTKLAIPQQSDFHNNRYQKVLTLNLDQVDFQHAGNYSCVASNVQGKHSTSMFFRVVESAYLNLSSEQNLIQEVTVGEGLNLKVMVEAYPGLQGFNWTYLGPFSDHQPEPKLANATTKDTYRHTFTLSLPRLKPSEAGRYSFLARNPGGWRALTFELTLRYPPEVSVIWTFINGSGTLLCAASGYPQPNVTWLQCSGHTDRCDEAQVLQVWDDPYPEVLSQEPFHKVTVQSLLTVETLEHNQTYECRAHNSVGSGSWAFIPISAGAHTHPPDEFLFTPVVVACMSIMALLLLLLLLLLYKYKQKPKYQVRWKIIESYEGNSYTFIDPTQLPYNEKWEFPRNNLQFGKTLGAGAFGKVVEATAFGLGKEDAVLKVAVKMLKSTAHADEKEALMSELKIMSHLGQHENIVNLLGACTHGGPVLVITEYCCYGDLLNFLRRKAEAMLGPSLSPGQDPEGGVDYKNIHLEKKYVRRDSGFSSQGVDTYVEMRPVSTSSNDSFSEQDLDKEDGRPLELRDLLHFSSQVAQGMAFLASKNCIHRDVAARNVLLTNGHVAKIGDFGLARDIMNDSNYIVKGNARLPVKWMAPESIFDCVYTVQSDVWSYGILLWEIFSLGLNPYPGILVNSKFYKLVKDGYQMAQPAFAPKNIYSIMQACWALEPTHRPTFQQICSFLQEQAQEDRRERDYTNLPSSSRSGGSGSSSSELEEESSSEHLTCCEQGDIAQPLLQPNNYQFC

[7] = biological target: SBK1 (Homo sapiens, UniProt Q52WX2)
Chain of SBK1 (Q52WX2 whole entry): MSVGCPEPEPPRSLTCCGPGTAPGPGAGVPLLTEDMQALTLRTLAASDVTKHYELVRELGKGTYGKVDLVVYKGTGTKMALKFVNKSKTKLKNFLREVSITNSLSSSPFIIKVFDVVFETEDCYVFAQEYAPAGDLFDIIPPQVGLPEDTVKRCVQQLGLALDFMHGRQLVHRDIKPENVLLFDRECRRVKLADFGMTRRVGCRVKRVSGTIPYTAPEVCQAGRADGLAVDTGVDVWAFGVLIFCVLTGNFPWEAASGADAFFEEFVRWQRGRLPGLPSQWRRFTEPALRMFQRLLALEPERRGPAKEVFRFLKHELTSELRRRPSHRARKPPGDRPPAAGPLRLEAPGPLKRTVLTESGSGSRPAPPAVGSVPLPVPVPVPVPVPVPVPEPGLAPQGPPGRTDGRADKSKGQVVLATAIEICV

[8] = biological target: PDGFRB (Homo sapiens, UniProt P09619)
Chain of PDGFRB (P09619 whole entry): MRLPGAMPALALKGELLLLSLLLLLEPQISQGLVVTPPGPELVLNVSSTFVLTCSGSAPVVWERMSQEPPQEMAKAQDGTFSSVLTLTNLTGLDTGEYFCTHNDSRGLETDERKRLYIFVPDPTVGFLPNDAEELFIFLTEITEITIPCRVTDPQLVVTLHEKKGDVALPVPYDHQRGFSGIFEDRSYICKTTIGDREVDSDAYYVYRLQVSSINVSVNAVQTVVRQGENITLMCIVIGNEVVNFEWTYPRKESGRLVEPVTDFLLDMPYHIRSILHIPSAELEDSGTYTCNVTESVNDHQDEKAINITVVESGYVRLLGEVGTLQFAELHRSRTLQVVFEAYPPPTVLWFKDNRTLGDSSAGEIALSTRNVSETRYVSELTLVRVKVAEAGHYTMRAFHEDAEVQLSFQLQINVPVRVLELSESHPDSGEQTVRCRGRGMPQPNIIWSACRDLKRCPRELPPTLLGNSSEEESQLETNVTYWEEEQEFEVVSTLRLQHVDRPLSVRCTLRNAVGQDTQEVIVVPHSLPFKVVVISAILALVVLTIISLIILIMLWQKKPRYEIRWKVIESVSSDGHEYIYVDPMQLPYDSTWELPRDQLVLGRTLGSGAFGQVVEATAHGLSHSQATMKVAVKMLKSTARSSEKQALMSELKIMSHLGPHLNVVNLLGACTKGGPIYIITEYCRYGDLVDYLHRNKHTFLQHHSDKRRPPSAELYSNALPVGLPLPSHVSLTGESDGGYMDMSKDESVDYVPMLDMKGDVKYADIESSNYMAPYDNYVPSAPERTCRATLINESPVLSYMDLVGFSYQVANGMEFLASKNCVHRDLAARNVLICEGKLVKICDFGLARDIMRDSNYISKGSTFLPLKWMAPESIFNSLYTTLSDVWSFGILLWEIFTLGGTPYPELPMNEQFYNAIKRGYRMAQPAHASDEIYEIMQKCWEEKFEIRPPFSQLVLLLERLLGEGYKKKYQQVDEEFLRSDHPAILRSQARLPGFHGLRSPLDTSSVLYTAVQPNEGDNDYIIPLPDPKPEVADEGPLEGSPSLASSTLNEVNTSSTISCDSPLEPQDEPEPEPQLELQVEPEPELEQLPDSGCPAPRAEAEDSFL

[9] = biological target: T4, MST3 (Homo sapiens, UniProt Q9Y6E0)
T4 construct: gene STK24
T4 sequence (Q9Y6E0 whole entry): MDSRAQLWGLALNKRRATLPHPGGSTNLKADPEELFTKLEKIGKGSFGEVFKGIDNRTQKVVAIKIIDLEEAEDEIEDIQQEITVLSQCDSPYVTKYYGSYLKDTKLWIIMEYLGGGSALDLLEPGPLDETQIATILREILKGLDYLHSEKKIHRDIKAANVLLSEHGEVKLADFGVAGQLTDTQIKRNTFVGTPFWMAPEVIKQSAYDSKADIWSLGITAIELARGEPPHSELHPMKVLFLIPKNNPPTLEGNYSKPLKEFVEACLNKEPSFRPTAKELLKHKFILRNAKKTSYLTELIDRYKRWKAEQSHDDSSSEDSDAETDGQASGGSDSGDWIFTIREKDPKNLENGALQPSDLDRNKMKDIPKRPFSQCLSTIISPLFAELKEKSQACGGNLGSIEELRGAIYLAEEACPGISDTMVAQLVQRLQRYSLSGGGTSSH

[10] = biological target: RET(M918T) (Homo sapiens, UniProt P07949, M918T)
[11] = read-out: Percent control / Acalabrutinib
[12] = read-out: Percent control / Ibrutinib
[13] = read-out: Percent control / Tirabrutinib
[14] = read-out: Percent control / Zanubrutinib

## CC#CC(=O)N1CCC[C@H]1c1nc(-c2ccc(C(=O)Nc3ccccn3)cc2)c2c(N)nccn12 [Acalabrutinib]
[1]; [11]
  remaining binding at 0.3 µM: 43%
[2]; [11]
  remaining binding at 0.3 µM: 99%
[3]; [11]
  remaining binding at 0.3 µM: 95%
[4]; [11]
  remaining binding at 0.3 µM: 81%
[5]; [11]
  remaining binding at 0.3 µM: 85%
[6]; [11]
  remaining binding at 0.3 µM: 88%
[7]; [11]
  remaining binding at 0.3 µM: 91%
[8]; [11]
  remaining binding at 0.3 µM: 93%
[9]; [11]
  remaining binding at 0.3 µM: 94%

## C=CC(=O)N1CCC[C@@H](n2nc(-c3ccc(Oc4ccccc4)cc3)c3c(N)ncnc32)C1 [Ibrutinib]
[1]; [12]
  remaining binding at 0.3 µM: 0.4%
[2]; [12]
  remaining binding at 0.3 µM: 75%
[10]; [12]
  remaining binding at 0.3 µM: 32%
[4]; [12]
  remaining binding at 0.3 µM: 75%
[5]; [12]
  remaining binding at 0.3 µM: 97%
[6]; [12]
  remaining binding at 0.3 µM: 66%
[7]; [12]
  remaining binding at 0.3 µM: 47%
[8]; [12]
  remaining binding at 0.3 µM: 38%
[9]; [12]
  remaining binding at 0.3 µM: 90%

## CC#CC(=O)N1CC[C@@H](n2c(=O)n(-c3ccc(Oc4ccccc4)cc3)c3c(N)ncnc32)C1 [Tirabrutinib]
[1]; [13]
  remaining binding at 0.3 µM: 38%
[2]; [13]
  remaining binding at 0.3 µM: 78%
[10]; [13]
  remaining binding at 0.3 µM: 91%
[3]; [13]
  remaining binding at 0.3 µM: 92%
[4]; [13]
  remaining binding at 0.3 µM: 87%
[7]; [13]
  remaining binding at 0.3 µM: 53%
[8]; [13]
  remaining binding at 0.3 µM: 79%

## C=CC(=O)N1CCC([C@@H]2CCNc3c(C(N)=O)c(-c4ccc(Oc5ccccc5)cc4)nn32)CC1 [Zanubrutinib]
[1]; [14]
  remaining binding at 0.3 µM: 14%
[10]; [14]
  remaining binding at 0.3 µM: 92%
[3]; [14]
  remaining binding at 0.3 µM: 72%
[4]; [14]
  remaining binding at 0.3 µM: 96%
[5]; [14]
  remaining binding at 0.3 µM: 97%
[6]; [14]
  remaining binding at 0.3 µM: 88%
[7]; [14]
  remaining binding at 0.3 µM: 94%
[8]; [14]
  remaining binding at 0.3 µM: 100%
[9]; [14]
  remaining binding at 0.3 µM: 91%
